According to patent US9586907B2, “Isothiocyanate compounds, pharmaceutical compositions, and uses thereof” (priority 2006, dated 2017):
Converted amounts (≈) assume the structure as drawn. Like-named read-outs stand apart in the source and are kept apart here.

Legend:
M. avium = experiment: MIC, M. avium; format: cell-based
M. tuberculosis AB = experiment: MIC, M. tuberculosis AB; format: cell-based
Protocol: (§1) Next, several of the bifunctional ITC compounds were tested for their ability to inhibit the growth of some clinical isolates of Mycobacteria, the results of which are summarized in Table 3 below.

M. tuberculosis W = experiment: MIC, M. tuberculosis W; format: cell-based
Protocol: as §1

M. tuberculosis 210 = experiment: MIC, M. tuberculosis 210; format: cell-based
Protocol: as §1

M. cansassi = experiment: MIC, M. cansassi; format: cell-based
M. intracellularie = experiment: MIC, M. intracellularie; format: cell-based
M. tuberculosis W4 = experiment: MIC, M. tuberculosis W4; format: cell-based
Protocol: as §1

M. fortuitum = experiment: MIC, M. fortuitum; format: cell-based
M. bovis BCG = experiment: microbe, parasite or virus in culture; format: cell-based
M. tuberculosis H37Rv = experiment: MIC, M. tuberculosis H37Rv; format: cell-based
Protocol: as §1

M. scrofulaceum = experiment: MIC, M. scrofulaceum; format: cell-based
M. tuberculosis CDC1551 = experiment: MIC, M. tuberculosis CDC1551; format: cell-based
Protocol: as §1

M. tuberculosis P = experiment: MIC, M. tuberculosis P; format: cell-based
Protocol: as §1

[1] = system: clinical isolates of bacteria and fungus (including yeasts); experiment: General antimicrobial activity, semi-quantitative score on collection of clinical isolates; format: cell-based; details: for antimicrobial / growth-inhibitory activity (in words): Table 1 screen; on General antimicrobial activity: key: −: indicating no activity; +++++: indicating highest activity
Protocol: The growth inhibitory effect of a number of various ITC compounds were tested on large collection of clinical isolates of bacteria and fungus (including yeasts), in order to establish a systematic structure-activity relationship for the ITC compounds. […] To assess the average activity for an individual ITC compound, the semi-quantitative score was calculated for each compound based on the number of sensitive bacterial strains at concentrations of 100 and 200 μM.

[2] = system: Enterococcus sp., BK11940; experiment: MIC, Enterococcus sp., BK11940; details: Enterococcus sp., BK11940; Gram +; 24 hours of incubation
[3] = system: Pseudomonas aeruginosa BK12347; experiment: MIC, Pseudomonas aeruginosa BK12347; details: Pseudomonas aeruginosa BK12347; Gram −; 24 hours of incubation
[4] = system: Serattia marcescens BK12421; experiment: MIC, Serattia marcescens BK12421; details: Serattia marcescens BK12421; Gram −; 24 hours of incubation
[5] = system: Enterobacter cloacii BK12313; experiment: MIC, Enterobacter cloacii BK12313; details: Enterobacter cloacii BK12313; Gram −; 24 hours of incubation
[6] = system: Pseudomonas aeruginosa BK12348; experiment: MIC, Pseudomonas aeruginosa BK12348; details: Pseudomonas aeruginosa BK12348; Gram −; 24 hours of incubation
[7] = system: Enterococcus sp., BK11936; experiment: MIC, Enterococcus sp., BK11936; details: Enterococcus sp., BK11936; Gram +; 24 hours of incubation
[8] = system: Enterobacter cloacii BK12315; experiment: MIC, Enterobacter cloacii BK12315; details: Enterobacter cloacii BK12315; Gram −; 24 hours of incubation
Bacillus cereus 4342 = experiment: MIC, Bacillus cereus 4342; details: Bacillus cereus 4342; Gram +; 24 hours of incubation
[9] = system: Klebsiella pneumonii BK12260; experiment: MIC, Klebsiella pneumonii BK12260; details: Klebsiella pneumonii BK12260; Gram −; 24 hours of incubation
[10] = system: Staphylococcus epidermidis BK12798; experiment: MIC, Staphylococcus epidermidis BK12798; details: Staphylococcus epidermidis BK12798; Gram +; 24 hours of incubation
[11] = system: Serattia marcescens BK12426; experiment: MIC, Serattia marcescens BK12426; details: Serattia marcescens BK12426; Gram −; 24 hours of incubation
[12] = system: Klebsiella pneumonii BK12261; experiment: MIC, Klebsiella pneumonii BK12261; details: Klebsiella pneumonii BK12261; Gram −; 24 hours of incubation
Shigella sp., BK 12441 = experiment: MIC, Shigella sp., BK 12441; format: cell-based; details: Gram −, 24 hours of incubation
[13] = system: Bacillus subtilis BK11590; experiment: MIC, Bacillus subtilis BK11590; format: cell-based; details: Gram +, 24 hours of incubation
Escherichia coli BK12336 = experiment: MIC, Escherichia coli BK12336; details: Escherichia coli BK12336; Gram −; 24 hours of incubation
[14] = system: Staphylococcus epidermidis BK12799; experiment: MIC, Staphylococcus epidermidis BK12799; details: Staphylococcus epidermidis BK12799; Gram +; 24 hours of incubation
[15] = system: MRSA (Staphylococcus aureus) BK12064; experiment: MIC, MRSA BK12064; details: MRSA BK12064; Gram +; 24 hours of incubation
[16] = system: MRSA (Staphylococcus aureus) BK12060; experiment: MIC, MRSA BK12060; details: MRSA BK12060; Gram +; 24 hours of incubation
[17] = system: Acinetobacter sp., BK12786; experiment: MIC, Acinetobacter sp., BK12786; details: Acinetobacter sp., BK12786; Gram −; 24 hours of incubation
[18] = system: Acinetobacter sp., BK12787; experiment: MIC, Acinetobacter sp., BK12787; details: Acinetobacter sp., BK12787; Gram −; 24 hours of incubation
Shigella sp., BK 12440 = experiment: MIC, Shigella sp., BK 12440; format: cell-based; details: Gram −, 24 hours of incubation
Escherichia coli K12 = experiment: MIC, Escherichia coli K12; details: Escherichia coli K12; Gram −; 24 hours of incubation
[19] = system: Candida albicans 5108^mdr; experiment: Anti-fungal MIC, Candida albicans 5108^mdr; details: Candida albicans, read-out: Anti-Fungal Activity (MIC)
[20] = system: Aspergillus fumigatus Rit 21; experiment: Anti-fungal MIC, Aspergillus fumigatus Rit 21; details: Aspergillus fumigatus, RIT21, read-out: Anti-Fungal Activity (MIC)
Candida albicans 90030 = experiment: Anti-fungal MIC, Candida albicans 90030; details: Candida albicans, 90030, read-out: Anti-Fungal Activity (MIC)
[21] = system: Cryptococcus neoformans CNH99; experiment: Anti-fungal MIC, Cryptococcus neoformans CNH99; details: Cryptococcus neoformans, CNH99, read-out: Anti-Fungal Activity (MIC)
[22] = system: Candida parapsilosis 22019; experiment: Anti-fungal MIC, Candida parapsilosis 22019; details: 22019, read-out: Anti-Fungal Activity (MIC)
Candida crusei 6258^mdr = experiment: microbe, parasite or virus in culture; details: read-out: Anti-Fungal Activity (MIC)
Candida dlabrata 250^mdr = experiment: Anti-fungal MIC, Candida dlabrata 250^mdr; details: Candida, read-out: Anti-Fungal Activity (MIC)
[23] = system: Aspergillus fumigatus Rit 1; experiment: Anti-fungal MIC, Aspergillus fumigatus Rit 1; details: Aspergillus fumigatus, RIT1, read-out: Anti-Fungal Activity (MIC)
[24] = system: Aspergillus fumigatus Rit 11; experiment: Anti-fungal MIC, Aspergillus fumigatus Rit 11; details: Aspergillus fumigatus, RIT11, read-out: Anti-Fungal Activity (MIC)
Candida albicans 90028 = experiment: Anti-fungal MIC, Candida albicans 90028; details: Candida albicans, 90028, read-out: Anti-Fungal Activity (MIC)
[25] = Mycobacterium tuberculosis, read-out: MIC

Structure (SMILES): CO[C@H]1/C=C/O[C@@]2(C)Oc3c(C)c(O)c4c(O)c(c(/C=N/N5CCN(C)CC5)c(O)c4c3C2=O)NC(=O)/C(C)=C\C=C\[C@H](C)[C@H](O)[C@@H](C)[C@@H](O)[C@@H](C)[C@H](OC(C)=O)[C@@H]1C [Rif, Rifampicin, reference compound]
- MIC (M. avium; Mycobacterium avium): 0.5 µg/mL (≈ 0.608 µM)
- MIC (M. tuberculosis AB; [25]): 0.5 µg/mL (≈ 0.608 µM)
- MIC (M. tuberculosis W; [25]): > 4 µg/mL
- MIC (M. tuberculosis 210; [25]): 0.5 µg/mL (≈ 0.608 µM)
- MIC (M. cansassi): 0.5 µg/mL (≈ 0.608 µM)
- MIC (M. intracellularie): 0.5 µg/mL (≈ 0.608 µM)
- MIC (M. tuberculosis W4; [25]): 0.5 µg/mL (≈ 0.608 µM)
- MIC (M. fortuitum; Mycolicibacterium fortuitum): > 4 µg/mL
- MIC (M. bovis BCG; Mycobacterium tuberculosis variant bovis BCG, BCG): 0.5 µg/mL (≈ 0.608 µM)
- MIC (M. tuberculosis H37Rv; [25]): 0.5 µg/mL (≈ 0.608 µM)
- MIC (M. scrofulaceum; Mycobacterium scrofulaceum): 0.5 µg/mL (≈ 0.608 µM)
- MIC (M. tuberculosis CDC1551; [25]): 0.5 µg/mL (≈ 0.608 µM)
- MIC (M. tuberculosis P; [25]): > 4 µg/mL

Structure (SMILES): O=C=NCc1ccccc1 [Compound 23, reference compound]
- antimicrobial / growth-inhibitory activity (in words) [1]: Neither of the chemically related derivatives—isocyanate (Compound 23) or thiocyanate (Compound 25)—displayed any activity
- General antimicrobial activity ([1]; semi-quantitative score from number of sensitive bacterial strains at 100 and 200 μM, deduced from number of sensitive bacterial species and average MIC): −

Structure (SMILES): S=C=NCCCCCCN=C=S [Compound 40, S═C═N—(CH2)6—N═C═S]
- MIC (M. avium; M. avium): 32 µg/mL (≈ 160 µM)
- MIC (M. tuberculosis AB): 4 µg/mL (≈ 20 µM)
- MIC (M. tuberculosis W): 0.5 µg/mL (≈ 2.5 µM)
- MIC (M. tuberculosis 210): 2 µg/mL (≈ 9.98 µM)
- MIC (M. cansassi; M. cansassi): 8 µg/mL (≈ 39.9 µM)
- MIC (M. intracellularie; M. intracellularie): 32 µg/mL (≈ 160 µM)
- MIC (M. tuberculosis W4): 2 µg/mL (≈ 9.98 µM)
- MIC (M. fortuitum; M. fortuitum): 16 µg/mL (≈ 79.9 µM)
- MIC (M. bovis BCG): 2 µg/mL (≈ 9.98 µM)
- MIC (M. tuberculosis H37Rv): 2 µg/mL (≈ 9.98 µM)
- MIC (M. scrofulaceum; M. scrofulaceum): 32 µg/mL (≈ 160 µM)
- MIC (M. tuberculosis CDC1551): 4 µg/mL (≈ 20 µM)
- MIC (M. tuberculosis P): 2 µg/mL (≈ 9.98 µM)

Structure (SMILES): OCCCCCCCN=C=S [Compound 44, HO—(CH2)7—N═C═S]
- MIC [2]: 32 µg/mL (≈ 185 µM)
- MIC [3]: >64 µg/mL
- MIC [4]: >64 µg/mL
- MIC [5]: >64 µg/mL
- MIC [6]: >64 µg/mL
- MIC [7]: 32 µg/mL (≈ 185 µM)
- MIC [8]: >64 µg/mL
- MIC (Bacillus cereus 4342): 8 µg/mL (≈ 46.2 µM)
- MIC [9]: >64 µg/mL
- MIC [10]: 8 µg/mL (≈ 46.2 µM)
- MIC [11]: >64 µg/mL
- MIC [12]: >64 µg/mL
- MIC (Shigella sp., BK 12441): 64 µg/mL (≈ 369 µM)
- MIC [13]: 4 µg/mL (≈ 23.1 µM)
- MIC (Escherichia coli BK12336): >64 µg/mL
- MIC [14]: 8 µg/mL (≈ 46.2 µM)
- MIC [15]: 16 µg/mL (≈ 92.3 µM)
- MIC [16]: 8 µg/mL (≈ 46.2 µM)
- MIC [17]: 64 µg/mL (≈ 369 µM)
- MIC [18]: 64 µg/mL (≈ 369 µM)
- MIC (Shigella sp., BK 12440): 64 µg/mL (≈ 369 µM)
- MIC (Escherichia coli K12): >64 µg/mL

Structure (SMILES): CN=C=S [Compound 8, CH3—N═C═S, reference compound]
- antimicrobial / growth-inhibitory activity (in words) [1]: very little activity

Structure (SMILES): S=C=NCC12CC3CC(CC(C3)C1)C2 [Compound 35]
- antimicrobial / growth-inhibitory activity (in words) [1]: poor growth-inhibitory activity

Structure (SMILES): C=CCN=C=S [Compound 22, CH2═CH2CH2—N═C═S, reference compound]
- antimicrobial / growth-inhibitory activity (in words) [1]: very little activity

Structure (SMILES): CCCCN=C=S [Compound 7, CH3CH2CH2CH2—N═C═S, reference compound]
- antimicrobial / growth-inhibitory activity (in words) [1]: very little activity

Structure (SMILES): O=C(O)c1cc(N=C=S)ccc1-c1c2ccc(O)cc2cc2cc(O)ccc12 [Compound 14, reference compound]
- antimicrobial / growth-inhibitory activity (in words) [1]: poor growth-inhibitory activity

Structure (SMILES): OC(Cn1cncn1)(Cn1cncn1)c1ccc(F)cc1F [Fluc, Fluconazol, reference compound]
- MIC [19]: 32 µg/mL (≈ 104 µM)
- MIC [20]: > 64 µg/mL
- MIC (Candida albicans 90030): 4 µg/mL (≈ 13.1 µM)
- MIC [21]: 4 µg/mL (≈ 13.1 µM)
- MIC [22]: 2 µg/mL (≈ 6.53 µM)
- MIC (Candida crusei 6258^mdr): 32 µg/mL (≈ 104 µM)
- MIC (Candida dlabrata 250^mdr): > 64 µg/mL
- MIC [23]: > 64 µg/mL
- MIC [24]: > 64 µg/mL
- MIC (Candida albicans 90028): 0.25 µg/mL (≈ 0.816 µM)
